Data set [1] deals with mitochondrial electron transport chain. The experiment in a line: ETC inhibition parameter from MITOsym simulation of OCR data, translated to DILIsym. The note with it: calculated from 24 h HepG2 OCR data and measured intracellular concentrations; lower = higher risk. From the text:
The parameters calculated in this manner were then translated to DILIsym parameters using a conversion factor based on the relative activity of rotenone in the in vitro vs. in vivo environment (7).

On the set-up of data set [2]: method as in proprietary data not shown. The note with it: ref proprietary data not shown, cited from earlier work.
In another data set the target is T1, human MRP4 (Homo sapiens, UniProt O15439).
T1 construct: host or cells: HEK-293 cell membrane vesicles
T1 sequence (O15439 1-1325): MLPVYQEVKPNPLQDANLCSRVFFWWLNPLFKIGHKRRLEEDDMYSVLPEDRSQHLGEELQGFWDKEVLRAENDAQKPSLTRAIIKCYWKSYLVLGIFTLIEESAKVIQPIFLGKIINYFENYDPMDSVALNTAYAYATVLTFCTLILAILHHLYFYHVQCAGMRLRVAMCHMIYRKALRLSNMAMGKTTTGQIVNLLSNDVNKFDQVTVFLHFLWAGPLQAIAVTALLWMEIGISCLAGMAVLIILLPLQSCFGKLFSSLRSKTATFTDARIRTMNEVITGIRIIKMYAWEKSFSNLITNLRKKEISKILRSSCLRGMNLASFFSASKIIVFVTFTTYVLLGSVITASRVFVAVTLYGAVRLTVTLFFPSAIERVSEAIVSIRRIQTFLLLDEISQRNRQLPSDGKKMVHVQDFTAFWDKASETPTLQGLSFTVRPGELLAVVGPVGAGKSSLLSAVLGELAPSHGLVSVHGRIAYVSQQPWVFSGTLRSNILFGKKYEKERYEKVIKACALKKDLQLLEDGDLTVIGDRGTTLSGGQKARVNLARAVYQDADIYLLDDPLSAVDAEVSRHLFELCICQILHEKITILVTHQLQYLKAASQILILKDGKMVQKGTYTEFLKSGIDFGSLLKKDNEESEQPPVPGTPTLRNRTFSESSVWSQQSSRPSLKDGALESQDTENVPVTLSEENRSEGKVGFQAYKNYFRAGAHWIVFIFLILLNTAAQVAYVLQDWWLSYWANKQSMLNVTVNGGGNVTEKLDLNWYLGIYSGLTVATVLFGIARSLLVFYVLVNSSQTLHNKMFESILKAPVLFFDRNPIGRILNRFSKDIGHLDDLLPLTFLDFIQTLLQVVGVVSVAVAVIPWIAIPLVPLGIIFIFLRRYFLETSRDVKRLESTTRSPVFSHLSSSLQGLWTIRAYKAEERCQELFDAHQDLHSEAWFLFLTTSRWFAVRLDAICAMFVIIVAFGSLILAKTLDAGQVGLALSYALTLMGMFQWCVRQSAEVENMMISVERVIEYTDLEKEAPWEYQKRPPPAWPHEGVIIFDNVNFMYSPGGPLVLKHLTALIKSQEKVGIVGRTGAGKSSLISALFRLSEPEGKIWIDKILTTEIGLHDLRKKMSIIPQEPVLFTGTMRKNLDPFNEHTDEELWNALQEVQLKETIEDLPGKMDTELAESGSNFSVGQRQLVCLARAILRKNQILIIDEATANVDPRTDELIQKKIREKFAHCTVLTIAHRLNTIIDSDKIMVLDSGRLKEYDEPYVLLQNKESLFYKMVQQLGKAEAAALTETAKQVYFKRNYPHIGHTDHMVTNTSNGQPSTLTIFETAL
The experiment in a line: MRP4 vesicular transport inhibition assay (E217βG, HEK-293 cell membrane vesicles). Format: biochemical. Here is the method:
(§1) The functional impact of lixivaptan, its three metabolites and tolvaptan on the human ABC (efflux) transporters BSEP and MRP3 and MRP4 was assessed for this project using in vitro vesicular transport inhibition assays. The inhibition of the human SLC (uptake) transporter NTCP was assessed using CHO cells stably expressing human NTCP. The concentration ranges used for the five test articles was determined based on the solubility of each compound in the assay solution. All transporter inhibition assays were conducted in triplicate by Solvo Biotechnology (Szeged, Hungary).
Figure B2. […] See Appendix A for more details.

For data set [3] the following is noted: cited from earlier work.
Data set [4] deals with T2, MRP3 and MRP4 (basolateral transport) (Homo sapiens, UniProt O15439).
T2 sequence (O15439 1-1325): T1 sequence (O15439 1-1325)
The data set can be described thus: Basolateral inhibition constant: lowest IC50 of the MRP3 and MRP4 vesicular assays. Type of data set: biochemical. The note with it: membrane vesicles (vesicular transport assay), lowest IC50 of the experimentally derived MRP3 and MRP4 IC50 values. Here is the method:
as §1, with “Hungary). For the simulation of bile acid transporter inhibition by lixivaptan in […], parameter values were selected for BSEP canalicular transport, basolateral transport (encompassing both MRP3 and MRP4), and NTCP transport. The parameter values for each include the inhibition constant, defined as the IC50 or Ki value, and the inhibition type, defined as competitive, non-competitive, or mixed inhibition.” for “Hungary).”

In another data set the target is T3, human NTCP (Homo sapiens, UniProt Q14973).
T3 sequence (Q14973 1-349): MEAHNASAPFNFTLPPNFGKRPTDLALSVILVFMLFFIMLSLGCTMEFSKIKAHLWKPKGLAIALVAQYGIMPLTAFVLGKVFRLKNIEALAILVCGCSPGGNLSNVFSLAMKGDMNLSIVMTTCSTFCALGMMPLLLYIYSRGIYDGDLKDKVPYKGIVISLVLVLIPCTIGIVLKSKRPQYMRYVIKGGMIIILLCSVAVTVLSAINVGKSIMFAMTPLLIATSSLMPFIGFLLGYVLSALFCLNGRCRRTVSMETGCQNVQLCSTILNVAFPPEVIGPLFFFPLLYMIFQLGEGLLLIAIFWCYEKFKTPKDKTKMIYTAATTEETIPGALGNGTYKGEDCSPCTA
The data set can be described thus: NTCP inhibition in CHO cells stably expressing human NTCP (taurocholate). Format: cell-based. Here is the method:
as §1
Figure B4. […] See Appendix A for more details.

A further data set has as its system HepG2 cells. The data set can be described thus: ROS formation by DHE fluorescence (high-content imaging). Type of data set: cell-based. The note with it: 24 hour incubation. Here is the method: To assess the potential for lixivaptan and its metabolites to induce oxidative stress, assays to measure formation of reactive oxygen species (ROS) were conducted by Cyprotex and overseen by the authors. HepG2 cells were cultured in triplicate in the presence of each test article for 1 or 24 hours; the range of concentrations used for each test article is listed in Table B1. ROS formation was assayed by DHE fluorescence. Two independent studies in triplicate were conducted on HepG2 cells.

The mark [5] stands for this setting: End Stage Renal Disease patients, ref personal communication, proprietary data not shown.

Usually Cmax stands for the highest concentration seen after dosing. One may read the IC50 as the concentration that gives 50% inhibition.

As for `Cc1ccc(F)cc1C(=O)Nc1ccc(C(=O)N2Cc3cccn3Cc3ccccc32)c(Cl)c1` [Lixivaptan, lixivaptan], the “Coefficient for ETC inhibition (DILIsym parameter)” value in data set [1] was 535 µM. The plasma fraction unbound entry in data set [2] (human) is listed as “less than 1%”. Also, the “blood:plasma ratio” value in data set [2] is reported as 0.6. The “inhibition of MRP4-mediated probe substrate accumulation” value on human MRP4 is given as “inhibited”. Also, the “time to steady-state concentration” value in data set [3] (100 mg BID, clinical, ref proprietary data not shown) is 6 days. Moreover, the “recovery in single-dose mass balance study” value in data set [3] (100 mg single dose, after 7 days, ref clinical study 0892A1-109-US) was 84%. In data set [3] (setting [5]), the “decrease of exposure (AUC) in renal failure patients vs subjects with normal renal function” value was “approximately 30%”. The “decrease of peak concentration (Cmax) in renal failure patients vs subjects with normal renal function” value in data set [3] (setting [5]) is on record as “approximately 30%”. Further, the Cmax in data set [3] (after 7 days of 100 mg BID, ref clinical study CK-LX1403 (data not shown)) is 2000 nM. The results for the IC50 (in data set [4]; on human NTCP (read-out: NTCP inhibition constant (IC50))) were 70 µM and 19 µM, respectively. Also, the “inhibition of NTCP-mediated probe substrate accumulation” value at human NTCP (CHO cells) is listed as “observed”. The “induction of oxidative stress in HepG2 cells” value with HepG2 cells is “evidence for induction of oxidative stress”.

(Values after PMC6944674, “Comparison of the Hepatotoxic Potential of Two Treatments for Autosomal-Dominant Polycystic Kidney DiseaseUsing Quantitative Systems Toxicology Modeling” (Pharmaceutical Research, 2020).)
